“Also recorded” adds a separate entry of the source.
How the values were obtained:
[1] = test system: Hep-3B cells; assay: Cellular assay: erythropoietin secretion in Hep-3B cells; assay type: cell-based, human; conditions: Homo sapiens, Hep3B, 100 μM compound, 24 hours, percent of EPO secretion relative to assay control compound 7-[(4-Chloro-phenyl)-(5-methyl-isoxazol-3-ylamino)-methyl]-quinolin-8-ol, read-out: Cellular % EPO Stimulation
Outline: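 Hep-3B cells in DMEM with 10% FBS, treated 24 h after plating with compounds at 100 μM final for a further 24 h. Secreted EPO in supernatant measured by MSD electrochemiluminescence sandwich immunoassay with anti-EPO detection antibody.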

[2] = Canine study, histological analysis (single dose escalation then repeat dose); assay type: in vivo; design: key to Histology: Stomach / Histology: Testis/Epididymis / Histology: Bone Marrow / Histology: Lung / Histology: Heart / Histology: Test/Epididymis / Histology: Kidney: NSL: No Significant Lesion; conditions: oral by stomach tube
Procedure: Various animal models are assessed for histological analysis. In one example, a canine study was used to assess the effect of 1-[6-(2,6-dimethyl-phenoxy)-7-fluoro-4-oxo-3,4-dihydro-quinazolin-2-yl]-1H-pyrazole-4-carboxylic acid when administered orally by stomach tube in a Single Dose Escalation (SDE) phase, and then subsequently for up to 5 days during the Repeat Dose (RD) phase.

[3] = target: T1, human PHD2 (PHD2181-417) (Homo sapiens, UniProt Q9GZT9); assay: PHD enzymatic assay ([14C]-succinic acid production); assay type: biochemical; conditions: PHD2181-417, HIF-1α peptide 10 μM, average of results; read-out: Enzyme pIC50 (converted)
T1 construct: Smt (SUMO) tag (cleaved yes); made in house; host or cells: E. coli BL21 (pBAD vector)
T1 sequence (Q9GZT9 181-417): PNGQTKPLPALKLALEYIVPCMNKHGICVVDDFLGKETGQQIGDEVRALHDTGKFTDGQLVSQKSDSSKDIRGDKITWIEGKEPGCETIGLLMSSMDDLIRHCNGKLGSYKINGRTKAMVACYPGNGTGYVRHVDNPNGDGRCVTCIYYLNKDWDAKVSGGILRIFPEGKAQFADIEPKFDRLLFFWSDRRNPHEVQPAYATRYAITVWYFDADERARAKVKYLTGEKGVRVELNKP
Outline: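 Activity measured as [14C]-succinic acid formed from [5-14C]-2-oxoglutarate over 10 minutes, with peptide substrate at 10 μM, in Tris-HCl pH 7.5 buffer containing catalase, DTT and ascorbate. Unreacted oxoglutarate removed by DNP derivatisation; supernatant beta-counted.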

For Cc1cccc(C)c1Oc1cc2c(=O)[nH]c(-n3cc(C(=O)O)cn3)nc2cc1F [Example 51, 1-[6-(2,6-Dimethyl-phenoxy)-7-fluoro-4-oxo-3,4-dihydro-quinazolin-2-yl]-1H-pyrazole-4-carboxylic acid], the Emax at 100 µM [1] was 100%, the “Histology: Bone Marrow” value ([2]; 10 mg/kg/day-1001 (Male)) was “NSL” and the “Histology: Heart” value ([2]; 10 mg/kg/day-1001 (Male)) was “NSL”. The “Histology: Kidney” value ([2]; 10 mg/kg/day-1001 (Male)) was “Slight, bilateral, acute multi-focal; also recorded: Slight, pelvic mineral deposition (right”, the “Histology: Liver” value ([2]; 10 mg/kg/day-1001 (Male)) was “Slight, acute portal inflammation” and the “Histology: Lung” value ([2]; 10 mg/kg/day-1001 (Male)) was “NSL”. For the same molecule, the “Histology: Spleen” value ([2]; 10 mg/kg/day-1001 (Male)) was “Mild EMH, with mild, increased; also recorded: Slight, intra-macrophage brown pigment”, the “Histology: Stomach” value ([2]; 10 mg/kg/day-1001 (Male)) was “NSL” and the “Histology: Testis/Epididymis” value ([2]; 10 mg/kg/day-1001 (Male)) was “NSL”. The “Histology: Bone Marrow” value ([2]; 10 mg/kg/day-1501 (female)) was “NSL”, the “Histology: Heart” value ([2]; 10 mg/kg/day-1501 (female)) was “NSL” and the “Histology: Kidney” value ([2]; 10 mg/kg/day-1501 (female)) was “NSL”. The “Histology: Liver” value ([2]; 10 mg/kg/day-1501 (female)) was “Slight, acute portal inflammation”, the “Histology: Lung” value ([2]; 10 mg/kg/day-1501 (female)) was “NSL” and the “Histology: Spleen” value ([2]; 10 mg/kg/day-1501 (female)) was “Mild EMH, with mild, increased; also recorded: Slight, intra-macrophage brown”. The “Histology: Stomach” value ([2]; 10 mg/kg/day-1501 (female)) was “NSL”, the “Histology: Bone Marrow” value ([2]; 45 mg/kg/day-2001 (Male)) was “BSL” and the “Histology: Heart” value ([2]; 45 mg/kg/day-2001 (Male)) was “NSL”. The “Histology: Kidney” value ([2]; 45 mg/kg/day-2001 (Male)) was “Slight, bilateral, acute multi-focal; also recorded: Multiple cysts with slight interstitial; also recorded: Slight, renal papillary mineralization”, the “Histology: Liver” value ([2]; 45 mg/kg/day-2001 (Male)) was “Mild, acute central-lobular inflammation” and the “Histology: Lung” value ([2]; 45 mg/kg/day-2001 (Male)) was “NSL”. For the same molecule, the “Histology: Spleen” value ([2]; 45 mg/kg/day-2001 (Male)) was “Mild EMH; also recorded: Mild, increased megkaryocytes; also recorded: Slight intra-macrophage brown pigment”, the “Histology: Stomach” value ([2]; 45 mg/kg/day-2001 (Male)) was “NSL” and the “Histology: Test/Epididymis” value ([2]; 45 mg/kg/day-2001 (Male)) was “NSL”. The “Histology: Bone Marrow” value ([2]; 45 mg/kg/day-2501(female)) was “NSL”, the “Histology: Kidney” value ([2]; 45 mg/kg/day-2501(female)) was “Slight, bilateral, acute-multi-focal; also recorded: Slight tubular vacuolization” and the “Histology: Liver” value ([2]; 45 mg/kg/day-2501(female)) was “Mild bile duct hyperplasia; also recorded: Multifocal portal tract thrombosis; also recorded: Slight, Kupffer cell brown pigment”. The “Histology: Lung” value ([2]; 45 mg/kg/day-2501(female)) was “NSL”, the “Histology: Spleen” value ([2]; 45 mg/kg/day-2501(female)) was “Mild EMH; also recorded: Mild, increased megkaryocytes; also recorded: Slight intra-macrophage brown” and the “Histology: Stomach” value ([2]; 45 mg/kg/day-2501(female)) was “NSL”. The IC50 [3] was 25.1 nM.
